In patent US10370343B2, “[6,6] Fused bicyclic HDAC8 inhibitors” (FORMA Therapeutics, Inc., priority 2015, dated 2019):
Where a name gives a salt, the structure may show the parent alone.

molecular target: T1, Full length human recombinant HDAC8 protein (Homo sapiens, UniProt Q9BY41); assay: In vitro histone deacetylase assay: enzymatic HDAC8 electrophoretic mobility shift assay; type: biochemical; conditions: electrophoretic mobility shift assay; enzyme 1 nM; 2 μM fluorescently labeled peptide substrate RHKK(Ac)-NH2; 25° C.; 12 concentrations; read-out: HDAC8 IC50
T1 construct: Full length human recombinant HDAC8 protein was expressed in baculoviral system; made in house
T1 sequence (Q9BY41 1-377): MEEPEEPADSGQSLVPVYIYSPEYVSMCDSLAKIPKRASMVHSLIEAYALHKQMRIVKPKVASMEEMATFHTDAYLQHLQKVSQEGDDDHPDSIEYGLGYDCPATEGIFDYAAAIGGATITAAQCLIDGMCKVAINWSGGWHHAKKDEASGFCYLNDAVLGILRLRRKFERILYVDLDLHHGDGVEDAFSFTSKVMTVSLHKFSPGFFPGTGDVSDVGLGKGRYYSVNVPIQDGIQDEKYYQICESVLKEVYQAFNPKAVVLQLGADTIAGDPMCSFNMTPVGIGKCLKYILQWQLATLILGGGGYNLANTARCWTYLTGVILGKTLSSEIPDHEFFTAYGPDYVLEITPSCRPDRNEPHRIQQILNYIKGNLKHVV

IC50 [nM] | SMILES
< 25 | O=C(NO)c1ccc2c(c1)N(Cc1ccc(S(=O)(=O)C(F)F)cc1)C(=O)CO2 [Compound I-88, 4-(4-((difluoromethyl)sulfonyl)benzyl)-N-hydroxy-3-oxo-3,4-dihydro-2H-benzo[b][1,4]oxazine-6-carboxamide]
100 to 1000 | COc1ccccc1CN1CCOc2ccc(C(=O)NO)cc21 [Compound I-126, N-hydroxy-4-(2-methoxybenzyl)-3,4-dihydro-2H-benzo[b][1,4]oxazine-6-carboxamide]
100 to 1000 | O=C(NO)c1ccc2c(c1)N(c1nc3ccccc3[nH]1)CCC2 [Compound I-106, 1-(1H-benzo[d]imidazol-2-yl)-N-hydroxy-1,2,3,4-tetrahydroquinoline-7-carboxamide]
25 to 100 | O=C(NO)c1ccc2c(c1)N(Cc1ccccc1)CC(C(=O)NCc1ccccc1)O2 (stereo not drawn) [Compound I-6, N^2,4-dibenzyl-N^6-hydroxy-3,4-dihydro-2H-benzo[b][1,4]oxazine-2,6-dicarboxamide]
25 to 100 | COc1ccc(CN2CC(C)Oc3ccc(C(=O)NO)cc32)cc1 (stereo not drawn) [Compound I-84, N-hydroxy-4-(4-methoxybenzyl)-2-methyl-3,4-dihydro-2H-benzo[b][1,4]oxazine-6-carboxamide]
25 to 100 | CN1CC(C(=O)NCc2ccccc2)Oc2ccc(C(=O)NO)cc21 (stereo not drawn) [Compound I-5, N^2-benzyl-N^6-hydroxy-4-methyl-3,4-dihydro-2H-benzo[b][1,4]oxazine-2,6-dicarboxamide hydrochloride]
100 to 1000 | O=C(NO)c1ccc2c(c1)N(Cc1nc3ccccc3n1CC1CC1)C(=O)CO2 [Compound I-279, 4-((1-(cyclopropylmethyl)-1H-benzo[d]imidazol-2-yl)methyl)-N-hydroxy-3-oxo-3,4-dihydro-2H-benzo[b][1,4]oxazine-6-carboxamide]
< 25 | CS(=O)(=O)c1ccc(CN2C(=O)COc3ccc(C(=O)NO)cc32)c(Cl)c1 [Compound I-93, 4-(2-chloro-4-(methylsulfonyl)benzyl)-N-hydroxy-3-oxo-3,4-dihydro-2H-benzo[b][1,4]oxazine-6-carboxamide]
< 25 | O=C(NO)c1ccc2c(c1)N(Cc1cccc(C(F)(F)F)c1)C(=O)CO2 [Compound I-144, N-hydroxy-3-oxo-4-(3-(trifluoromethyl)benzyl)-3,4-dihydro-2H-benzo[b][1,4]oxazine-6-carboxamide]
100 to 1000 | O=C(NO)c1ccc2c(c1)N(CC1CCS(=O)(=O)CC1)C(=O)CO2 [Compound I-49, 4-((1,1-dioxidotetrahydro-2H-thiopyran-4-yl)methyl)-N-hydroxy-3-oxo-3,4-dihydro-2H-benzo[b][1,4]oxazine-6-carboxamide]
> 1000 | COCCn1c(N2CCCc3c(C(=O)NO)cccc32)nc2ccccc21 [Compound I-13, N-hydroxy-1-(1-(2-methoxyethyl)-1H-benzo[d]imidazol-2-yl)-1,2,3,4-tetrahydroquinoline-5-carboxamide]
> 1000 | O=C(NO)c1ccc2c(c1)N(C(=O)c1ccccc1)CCO2 [Compound I-140, 4-benzoyl-N-hydroxy-3,4-dihydro-2H-benzo[b][1,4]oxazine-6-carboxamide]
100 to 1000 | O=C(NO)c1ccc2c(c1)N(Cc1c(Cl)cccc1Cl)CCO2 [Compound I-23, 4-(2,6-dichlorobenzyl)-N-hydroxy-3,4-dihydro-2H-benzo[b][1,4]oxazine-6-carboxamide]
25 to 100 | COc1ccc(CN2C(=O)C(CCN(C)C)Oc3ccc(C(=O)NO)cc32)cc1 (stereo not drawn) [Compound I-105, 2-(2-(dimethylamino)ethyl)-N-hydroxy-4-(4-methoxybenzyl)-3-oxo-3,4-dihydro-2H-benzo[b][1,4]oxazine-6-carboxamide]
< 25 | O=C(NO)c1ccc2c(c1)N(Cc1cccc(C(F)(F)F)c1)CCS2(=O)=O [Compound I-81, N-hydroxy-4-(3-(trifluoromethyl)benzyl)-3,4-dihydro-2H-benzo[b][1,4]thiazine-6-carboxamide-1,1-dioxide]
